Literature values in patent US20090325888A1, “Peptides having a health benefit and compositions comprising them” (priority 2005, published 2009).

How the values were obtained:
ACE = ACE (Homo sapiens, UniProt P12821)
hypertensive humans = settings: in sour milk, Hata 1996

Sequence of ACE (P12821 30-1306, species assumed): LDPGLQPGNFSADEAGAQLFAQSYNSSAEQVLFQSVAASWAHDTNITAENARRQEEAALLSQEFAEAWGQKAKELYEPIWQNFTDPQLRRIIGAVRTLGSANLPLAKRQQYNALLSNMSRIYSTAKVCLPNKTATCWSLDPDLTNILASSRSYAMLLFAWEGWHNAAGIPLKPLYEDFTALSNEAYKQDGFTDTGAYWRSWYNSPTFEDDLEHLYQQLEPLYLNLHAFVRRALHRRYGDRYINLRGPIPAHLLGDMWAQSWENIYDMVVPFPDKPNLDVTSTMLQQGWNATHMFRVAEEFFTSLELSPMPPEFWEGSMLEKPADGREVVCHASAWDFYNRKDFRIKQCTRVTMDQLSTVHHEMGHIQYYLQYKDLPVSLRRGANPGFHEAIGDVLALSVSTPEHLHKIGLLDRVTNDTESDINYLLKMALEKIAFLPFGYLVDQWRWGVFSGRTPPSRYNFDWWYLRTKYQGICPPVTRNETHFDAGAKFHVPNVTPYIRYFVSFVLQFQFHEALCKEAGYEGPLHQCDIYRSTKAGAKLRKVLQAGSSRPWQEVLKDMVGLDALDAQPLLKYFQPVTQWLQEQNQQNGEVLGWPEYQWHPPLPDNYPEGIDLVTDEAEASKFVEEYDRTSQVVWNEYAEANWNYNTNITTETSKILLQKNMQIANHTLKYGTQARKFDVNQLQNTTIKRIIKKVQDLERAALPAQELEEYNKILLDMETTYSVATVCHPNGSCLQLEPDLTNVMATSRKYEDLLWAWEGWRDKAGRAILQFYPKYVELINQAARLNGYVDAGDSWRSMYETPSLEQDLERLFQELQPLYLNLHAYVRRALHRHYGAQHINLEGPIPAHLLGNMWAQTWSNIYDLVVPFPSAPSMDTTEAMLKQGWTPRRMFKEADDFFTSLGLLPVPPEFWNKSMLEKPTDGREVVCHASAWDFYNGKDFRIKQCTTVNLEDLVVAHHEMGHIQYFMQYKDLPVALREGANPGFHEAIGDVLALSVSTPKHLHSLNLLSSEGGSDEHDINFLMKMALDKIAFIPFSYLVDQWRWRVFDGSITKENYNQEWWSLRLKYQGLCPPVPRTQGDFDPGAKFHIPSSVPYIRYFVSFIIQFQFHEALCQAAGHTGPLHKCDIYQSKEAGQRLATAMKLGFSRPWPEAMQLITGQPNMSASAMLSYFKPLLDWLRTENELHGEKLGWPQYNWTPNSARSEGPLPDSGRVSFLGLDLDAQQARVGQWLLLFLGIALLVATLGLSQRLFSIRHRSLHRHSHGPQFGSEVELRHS

| Compound | in vitro ACE inhibition (ACE; peptides in fermented milk products) | blood pressure lowering effect (hypertensive humans) | IC50 (ACE; Nakamura 1995, Aryoshi 1993, read-out: IC50 values reported earlier as ACEI peptides) |
| --- | --- | --- | --- |
| CC[C@H](C)[C@H](N)C(=O)N1CCC[C@H]1C(=O)N1CCC[C@H]1C(=O)O [IPP] | in vitro ACE inhibition | blood pressure lowering effect |  |
| LPP: known ACE inhibiting tripeptide, β-casein f151-153 (UniProt P02666 166-168, looked up, fragment) |  |  | 9.6 µM |
